The test system of data set [1] is skeletal muscle of the rat (chronic ischemic). Kind of data set: Effect on the contractility of the skeletal muscle after chronic ischemia (tiring index). The format is in vivo, rat (male Wistar). The conditions noted are these: for TI of ischemic treated muscle: tiring index = maximum contractility / residual force after 5 min stimulation; for change in vivo at 6 mg/kg: Rattus norvegicus, po, 168 h, read-out: Percentage change (TI of ischemic treated muscle vs TI of normal non-treated muscle). The text has this:
1) Effect on the Contractility of the Skeletal Muscle After Chronic Ischemia
In recent years, a marked change has taken place in ideas about the pathophysiology of chronic peripheral arterial occlusive disease as scientific interest has to an increasing extent shifted from the macrocirculation to the microcirculation. Disturbances in the microcirculation therefore manifest themselves in an undersupply of substrates with tissue ischemia resulting therefrom which, in turn, leads to an impairment in the function of the extremity concerned. The logical consequence of this is that the target organ skeletal muscle comes more and more into the forefront. […] The clinical activity is in fact also consistently determined in humans with the aid of the painless walking distance on the moving walkway.
Male Wistar rats having a body weight of 380 to 410 g were used as experimental animals. Under hexobarbital anesthesia (®Evipan--sodium, 200 mg/kg BW (=body weight) i.p.), a unilateral ligature of the right femoral artery was applied to the animals in the groin. After sprinkling penicillin sulfonamide powder for antibiotic wound care, the small operation wound was closed and the animals were continuously observed until they were completely awake. One week later, the administration of substance began by oral administration using a stomach tube (6 mg/kg BW, carboxymethylcellulose-sodium suspension) and was continued for 7 days (single administration per day, about 7h30 to 8h30). The contractility was measured 24 h after the last administration of substance in order to exclude acute effects, to be precise by the following experimental protocol:
Superfusion with physiological saline solution (37° C.) was used to avoid drying out and cooling. The mean arterial blood pressure was recorded continuously via Statham (=blood pressure measuring device) by means of a cannulated caroted artery to control the physiological status of the animals during the experiment. All animals breathed spontaneously by means of an inserted tracheal tube.
After these preparations, the muscle was made to contract (Stimulator I, Hugo Sachs, Federal Republic of Germany) by direct electrical stimulation (2.5 mA, 2 Hz). The absolute contractility in grams at various times of stimulation was used as the measured parameter. […] If the maximum contractility at the start of stimulation is now divided by the residual force remaining after 5 minutes' tiring stimulation, a "tiring index TI" for the muscle concerned can be calculated; the ability to tire here is larger the larger TI is numerically.
4 to 6 individual experiments were carried out for each test preparation.

The subject of data set [2] is laser-induced thrombosis in mesenterial arterioles. The data set can be described thus: Inhibition of laser-induced thrombosis in mesenterial arterioles of the rat. The format is in vivo, rat (female Sprague-Dawley). The note with it: for inhibition in vivo at 10 mg/kg / inhibition in vivo at 20 mg/kg: Rattus norvegicus, po, read-out: Percentage change vs control (inhibition of laser-induced thrombosis); for inhibition in vivo at 10 mg/kg: 10 mg/kg p.o.

The nature of data set [3]: Acute toxicity (LD50 range). The note with it: mouse, in vivo, iv, single administration, NMRI mice, 7 days. On the procedure: The determination of the LD50 ranges was carried out in standard fashion by means of the mortality occurring in the course of 7 days in NMRI mice after single intravenous (i.v.) or intraperitoneal (i.p.) administration (NMRI=NIH Medical Research Institute).

Setting [4] is: 6 mg/kg p.o. over 7 days, n = 4-6.
Setting [5] is: 6 mg/kg p.o. over 7 days, n = 4-6, smaller value = more effective.

The text below walks through data of patent US5232922A, “Imidazole compounds, processes for their preparation, pharmaceuticals based on these compounds and some intermediates” (priority 1990, dated 1993).

Structures can show the parent of a compound that is named as a salt. Where two headings read alike, the source gives them in different places.

For the compound `Cl.Cn1cnc(S(=O)(=O)NCCN2CCCC2)c1` [Example 20, N-(2-pyrrolidinoethyl)-1-methyl-4-imidazolesulfonamide hydrochloride], in data set [1] (setting [4]), the “TI of ischemic treated muscle” value came out at 2.56. The change in vivo at 6 mg/kg in data set [1] (setting [5]) amounted to 23.1%.
In the case of `Cn1cnc(S(=O)(=O)N2CCS(=O)(=O)CC2)c1` [Example 57, 4-(1-Methyl-4-imidazolesulfonyl)tetrahydro-4H-1,4-thiazine-1,1-dioxide], the inhibition in vivo at 10 mg/kg in data set [2] is 19%.
Turning to `CN(CCCNS(=O)(=O)c1cn(C)cn1)Cc1ccccc1` [Example 28, N-[3-(N-Benzyl-N-methylamino)-1-propyl]-1-methyl-4-imidazolesulfonamide hydrogenfumarate], in data set [1] (setting [4]), the “TI of ischemic treated muscle” value came to 2.27. Moreover, the change in vivo at 6 mg/kg in data set [1] (setting [5]) turned out to be 14.6%.
Consider `Cn1cnc(S(=O)(=O)NCCCCCCNS(=O)(=O)c2ncn(C)c2Cl)c1Cl` [Example 47, 1,6-bis(5-chloro-1-methyl-4-imidazolesulfonamido)hexane], for which the “TI of ischemic treated muscle” value in data set [1] (setting [4]) was 2.46. Moreover, the change in vivo at 6 mg/kg in data set [1] (setting [5]) turned out to be 6%.
Turning to `Cl.Cn1cnc(S(=O)(=O)NCCCN2CCSCC2)c1` [Example 13, N-(3-thiomorpholinopropyl)-1-methyl-4-imidazolesulfonamide hydrochloride], in data set [2] (20 mg/kg p.o.), the inhibition in vivo at 20 mg/kg is 14%. Moreover, in data set [1] (setting [4]), the “TI of ischemic treated muscle” value is 2.95. In addition, the change in vivo at 6 mg/kg in data set [1] (setting [5]) was -10.1%.
With `CCCCN(CCCN1CCOCC1)S(=O)(=O)c1cn(C)cn1.Cl` [Example 15, N-butyl-N-(3-morpholino-1-propyl)-1-methyl-4-imidazolesulfonamide hydrochloride], the “TI of ischemic treated muscle” value in data set [1] (setting [4]) is 1.96. In addition, the change in vivo at 6 mg/kg in data set [1] (setting [5]) was found to be 10.9%.
With `Cc1nc(S(=O)(=O)NCCCN2CCOCC2)cn1C.Cl` [Example 33, N-(3-Morpholinopropyl)-1,2-dimethyl-4-imidazolesulfonamide hydrochloride], in data set [2], the inhibition in vivo at 10 mg/kg came out at 18%. The “TI of ischemic treated muscle” value in data set [1] (setting [4]) was 2.30. Also, the change in vivo at 6 mg/kg in data set [1] (setting [5]) was 12.2%.
A word on the LD50: it is the dose expected to kill half of the subjects tested. The low end stands for greater toxicity, the high end for lower toxicity. Consider `Cn1cnc(S(=O)(=O)NCCC[N+]2(C)CCOCC2)c1` [Example 56, 4-Methyl-4-[3-(1-methyl-4-imidazolesulfamoyl)-1-propyl]morpholinium iodide], for which the inhibition in vivo at 10 mg/kg in data set [2] worked out at 24%. For the same compound, the LD50 at 168 h in data set [3] was > 100 mg/kg.
`Cn1cnc(S(=O)(=O)O)c1` [Example 3, 1-Methyl-4-imidazolesulfonic acid]: the inhibition in vivo at 20 mg/kg in data set [2] (20 mg/kg p.o.) is 23%. The “TI of ischemic treated muscle” value in data set [1] (setting [4]) is 2.26. The change in vivo at 6 mg/kg in data set [1] (setting [5]) was 7.1%.
As to `COCCN(CCCNS(=O)(=O)c1cn(C)cn1)CCOC` [Example 23], the “TI of ischemic treated muscle” value in data set [1] (setting [4]) stood at 2.18. The change in vivo at 6 mg/kg in data set [1] (setting [5]) turned out to be 23.1%.
As for `Cn1cnc(S(=O)(=O)NCCc2ccc(O)cc2)c1` [Example 45, N-(4-hydroxyphenethyl)-1-methyl-4-imidazolesulfonamide], in data set [1] (setting [4]), the “TI of ischemic treated muscle” value amounted to 2.14. The change in vivo at 6 mg/kg in data set [1] (setting [5]) was determined as 16.3%.
On the same counts, the results for `CCn1cnc(S(=O)(=O)NCCCN2CCOCC2)c1` [Example 37, N-(3-Morpholinopropyl)-1-ethyl-4-imidazolesulfonamide hydrogenfumarate] are 2.09 and -7.9%.
As to `CC1CCCCN1CCCNS(=O)(=O)c1cn(C)cn1.Cl` (stereo not drawn) [Example 17, N-[3-(2-methylpiperidino)-propyl]-1-methyl-4-imidazolesulfonamide hydrochloride], in data set [1] (setting [4]), the “TI of ischemic treated muscle” value came out at 2.04. Moreover, in data set [1] (setting [5]), the change in vivo at 6 mg/kg was -14.3%.
In the case of `Cn1cnc(S(=O)(=O)Oc2ccc(N3CCN(S(=O)(=O)c4ncn(C)c4Cl)CC3)cc2)c1Cl` [Example 41, 1-(1-Methyl-5-chloro-4-imidazolesulfonyl)4-[4-(1-methyl-5-chloro-4-imidazolesulfonyloxy)phenyl]piperazine], in data set [1] (setting [4]), the “TI of ischemic treated muscle” value is 2.18. Further, the change in vivo at 6 mg/kg in data set [1] (setting [5]) was 18.5%.
Take `CCOC(=O)COc1ccc(N2CCN(S(=O)(=O)c3ncn(C)c3Cl)CC2)cc1` [Example 58, Ethyl 4-[4-(5-chloro-1-methyl-4-imidazolesulfonyl)piperazinyl]phenoxyacetate]: in data set [1] (setting [4]), the “TI of ischemic treated muscle” value was determined as 2.07. Moreover, the change in vivo at 6 mg/kg in data set [1] (setting [5]) was -1.9%.
As to `Cn1cnc(S(=O)(=O)NCCCCN2CCC3(CC2)OCCO3)c1` [Example 19, hydrochloride], in data set [1] (setting [4]), the “TI of ischemic treated muscle” value stood at 2.20. In addition, in data set [1], the change in vivo at 6 mg/kg was 11.1%.
As to `Cl.Cn1cnc(S(=O)(=O)NCCCN2CCN(Cc3ccccc3)CC2)c1` [Example 26, N-[3-(4-benzyl-1-piperazinyl)-propyl]-1-methyl-4-imidazolesulfonamide hydrochloride], the inhibition in vivo at 10 mg/kg in data set [2] came to 24%. Also, the “TI of ischemic treated muscle” value in data set [1] (setting [4]) was 2.49. For the same compound, the change in vivo at 6 mg/kg in data set [1] (setting [5]) is 25.7%.
Consider `CNCCCNS(=O)(=O)c1cn(C)cn1.Cl` [Example 62, N-(3-Methylamino-1-propyl)-1-methyl-4-imidazolesulfonamide hydrochloride], for which the “TI of ischemic treated muscle” value in data set [1] (setting [4]) was 2.5. The change in vivo at 6 mg/kg in data set [1] (setting [5]) is 27.8%.
Regarding `Cn1cnc(S(=O)(=O)NCCc2ccc(OCC(=O)O)cc2)c1` [Example 51, 4-[2-(1-Methyl-4-imidazolesulfonyl)aminoethyl]phenoxyacetic acid], the “TI of ischemic treated muscle” value in data set [1] (setting [4]) is listed as 2.92. Also, the change in vivo at 6 mg/kg in data set [1] (setting [5]) came out at 23.7%.
Regarding `CN1CCCC1CCNS(=O)(=O)c1cn(C)cn1.Cl` (stereo not drawn) [Example 21, N-[2-(1-methyl-2-pyrrolidinyl)-ethyl]-1-methyl-4-imidazolesulfonamide hydrochloride], the inhibition in vivo at 20 mg/kg in data set [2] (20 mg/kg p.o.) stood at 24%. In data set [1] (setting [4]), the “TI of ischemic treated muscle” value came out at 2.34. Further, the change in vivo at 6 mg/kg in data set [1] (setting [5]) worked out at 19.4%.
“1-[3-(1-methyl-5-imidazolesulfonyl)-aminopropyl]-2-pyrrolidinone [Example 43]”: the “Percentage change vs control (inhibition of laser-induced thrombosis)” value in data set [2] (20 mg/kg p.o.) amounted to 15%. The “Percentage change (TI of ischemic treated muscle vs TI of normal non-treated muscle)” value in data set [1] (setting [5]) is recorded as “+29.4%”. Also, the “TI of ischemic treated muscle” value in data set [1] (setting [4]) was 2.29.
On to `CC(CNS(=O)(=O)c1cn(C)cn1)CN1CCOCC1.Cl` (stereo not drawn) [Example 12, N-(3-morpholino-2-methyl-1-propyl)-1-methyl-4-imidazolesulfonamide hydrochloride], for which the inhibition in vivo at 20 mg/kg in data set [2] (20 mg/kg p.o.) worked out at 24%. Besides, the LD50 at 168 h in data set [3] is > 100 mg/kg.
Consider `Cn1cnc(S(=O)(=O)NC(CN2CCOCC2)CN2CCOCC2)c1` [Example 38, N-(1,3-Dimorpholino-2-propyl)-1-methyl-4-imidazolesulfonamide], for which the inhibition in vivo at 10 mg/kg in data set [2] was 21%. Besides, the “TI of ischemic treated muscle” value in data set [1] (setting [4]) is on record as 2.18. Also, in data set [1] (setting [5]), the change in vivo at 6 mg/kg came out at 10.1%.
For the compound `Cn1cnc(S(=O)(=O)NCCc2ccc(OCC(=O)O)cc2)c1Cl` [Example 52, 4-[2-(5-Chloro-1-methyl-4-imidazolesulfonyl)aminoethyl]phenoxyacetic acid], the “TI of ischemic treated muscle” value in data set [1] (setting [4]) came out at 2.16. For the same compound, the change in vivo at 6 mg/kg in data set [1] (setting [5]) turned out to be 17.4%.
On to `Cl.Cn1cnc(S(=O)(=O)NCCCCCN2CCOCC2)c1` [Example 11, N-(5-morpholinopentyl)-1-methyl-4-imidazolesulfonamide hydrochloride], for which, in data set [1] (setting [4]), the “TI of ischemic treated muscle” value was 2.52. The change in vivo at 6 mg/kg in data set [1] (setting [5]) came out at 22.9%.
On the same counts, the results for `Cn1cnc(S(=O)(=O)N2CCSCC2)c1` [Example 42, 4-(1-Methyl-4-imidazolesulfonyl)tetrahydro-4H-1,4-thiazine] are 2.84 and 24.6%.
The corresponding values for `Cn1cnc(S(=O)(=O)NCCN2CCOCC2)c1` [Example 9, N-(2-morpholinoethyl)-1-methyl-4-imidazolesulfonamide] are 2.47 and 10.3%.
